From publication PMC11966596, “Perturbation-Modulated Native Mass Spectrometry Excludes a Nonspecific Drug Target Protein Binder Based on Conformation Stability Change” (Analytical Chemistry, 2025)

Legend:
lysozyme = molecular target: T1, lysozyme (Gallus gallus, UniProt P00698); test: native OPP-ESI-MS, charge state distribution; format: binding; conditions: 100 μM protein, 1 mM ligand; 25 mM ammonium acetate; OPP solvent 10 mM NH4Ac
T1 construct: gene LYZ

[1] = molecular target: DHFR (recombinant human DHFR) (Homo sapiens, UniProt P00374); conditions: 5 μM his-tagged protein; 100 mM ammonium acetate; co-purified NADPH present
Chain of DHFR (recombinant human DHFR) (P00374 whole entry): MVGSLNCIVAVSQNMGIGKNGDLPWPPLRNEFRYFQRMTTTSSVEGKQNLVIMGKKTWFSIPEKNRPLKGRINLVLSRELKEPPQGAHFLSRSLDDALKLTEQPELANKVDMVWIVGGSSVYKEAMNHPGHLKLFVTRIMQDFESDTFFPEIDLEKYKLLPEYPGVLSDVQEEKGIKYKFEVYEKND

T1 sequence (P00698 19-147): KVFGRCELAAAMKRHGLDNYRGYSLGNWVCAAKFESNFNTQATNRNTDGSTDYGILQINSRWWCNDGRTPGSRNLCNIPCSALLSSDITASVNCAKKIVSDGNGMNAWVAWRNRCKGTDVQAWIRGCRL

R (bound/unbound protein ratio) (lysozyme) | SMILES | % binding at 100 μM [1]
0.59 | CC(=O)N[C@H]1[C@H](O[C@H]2[C@H](O)[C@@H](NC(C)=O)C(O)O[C@@H]2CO)O[C@H](CO)[C@@H](O[C@@H]2O[C@H](CO)[C@@H](O)[C@H](O)[C@H]2NC(C)=O)[C@@H]1O (some centres unmarked) [NTAC] | –
– | Nc1nc(N)c2nc(CNc3ccc(C(=O)N[C@@H](CCC(=O)O)C(=O)O)cc3)cnc2n1 [aminopterin] | 100%
